In patent US7267821B2, “Binding member which binds to both Lewisy and Lewisb haptens, and its use for treating cancer” (Scancell Limited, priority 2001, dated 2007):

Assays:
Type in all cases: cell-based
C170 cells = assay: 5FU and SC101/29, crystal violet cell number after 5 days; details: 5 Fluorouracil 0.25 μg/ml alone
Method: 3×10^3 C170 cells were plated into microtitre plates and left overnight to adhere. 5FU was added to a final concentrations of 0.25 and 0.5 μg/ml .SC101/29 antibody was also added at concentration of 1-50 μg/ml. […] However, in combination with a non-toxic dose of 5 Fluorouracil (0.25 μg/ml) there was a 70% reduction in cell growth.

[1] = tested on: C170 colorectal tumour cells; assay: Cisplatin then SC101/29, crystal violet viable cells after 4 days; parameters: dose or concentration left out as unconfirmed; details: cisplatin alone
Method: […] The cells were left for 4 days when the number of viable cells was determined by crystal violet staining and optical density reading at 550 nm. […] The combination of drug and antibody are synergistic, inducing a 50% reduction in cell growth.

Colorectal C170 cells = assay: Cyto Death ELISA for fragmented DNA, with or without cisplatin; details: cisplatin at 3 μg/ml alone
Method: The cultures were then washed once and incubated in goat anti-mouse antibody at 100 μg/ml for 30 minutes at room temperature. The cultures were then re-washed and left over night in culture medium with or without cisplatin. The following day the cultures were washed, lysed and tested for the presence of fragmented DNA by a Cyto Death ELISA (Roche). The results were recorded by optical Density measurements at 405 nm.

Structure (SMILES)	toxicity of dose to C170 cells (C170 cells)	inhibition of C170 cell growth [1]	apoptosis (fragmented DNA) (Colorectal C170 cells)
O=c1[nH]cc(F)c(=O)[nH]1 [5 Fluorouracil]	non-toxic	–	–
N.N.[Cl][Pt][Cl] [cisplatin]	–	10%	induces apoptosis
